Data on 25 compounds can be found in PubChem BioAssay AID248 (DTP/NCI, 2004).

The structures appear in SMILES notation. Inconclusive results and toxic doses are left out.

The test concerns L1210 leukemia ip in BDF1 mice, survival T/C. Put plainly: NCI In Vivo Anticancer Drug Screen. Data for tumor model L1210 Leukemia (intraperitoneal) in B6D2F1 (BDF1) mice. The conditions noted are these: endpoint: mean survival time, higher = longer survival. A digest of the protocol:
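Value reflects the ratio of survival in compound-treated mice to survival in vehicle-treated controls, with both groups carrying the same transplanted tumor.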

Setting [1] is: dose: 100.0 mg/kg/injection, schedule: Q01DX009 (ip), vehicle: Klucel (hydroxypropylcellulose) (HPC).
The mark [2] stands for this setting: dose: 100.0 mg/kg/injection, schedule: Q04DX003 (ip), vehicle: Klucel (hydroxypropylcellulose) (HPC).
Setting [3] is: dose: 200.0 mg/kg/injection, schedule: Q01DX009 (ip), vehicle: Klucel (hydroxypropylcellulose) (HPC).
The mark [4] stands for this setting: dose: 200.0 mg/kg/injection, schedule: Q04DX003 (ip), vehicle: Klucel (hydroxypropylcellulose) (HPC).
The mark [5] stands for this setting: dose: 400.0 mg/kg/injection, schedule: Q01DX009 (ip), vehicle: Klucel (hydroxypropylcellulose) (HPC).
[6] abbreviates: dose: 400.0 mg/kg/injection, schedule: Q04DX003 (ip), vehicle: Klucel (hydroxypropylcellulose) (HPC).
The mark [7] stands for this setting: dose: 100.0 mg/kg/injection, schedule: Q04DX003 (ip), vehicle: saline.
Setting [8] is: dose: 200.0 mg/kg/injection, schedule: Q04DX003 (ip), vehicle: saline.
[9] abbreviates: dose: 400.0 mg/kg/injection, schedule: Q04DX003 (ip), vehicle: saline.
The mark [10] stands for this setting: dose: 100.0 mg/kg/injection, schedule: Q01DX001 (ip), vehicle: saline.
[11] abbreviates: dose: 50.0 mg/kg/injection, schedule: Q01DX001 (ip), vehicle: carboxymethylcellulose (CMC).
Where [12] appears, read: dose: 100.0 mg/kg/injection, schedule: Q01DX001 (ip), vehicle: carboxymethylcellulose (CMC).
Where [13] appears, read: dose: 200.0 mg/kg/injection, schedule: Q01DX001 (ip), vehicle: carboxymethylcellulose (CMC).
[14] abbreviates: dose: 400.0 mg/kg/injection, schedule: Q01DX001 (ip), vehicle: carboxymethylcellulose (CMC).
Setting [15] is: dose: 100.0 mg/kg/injection, schedule: Q04DX003 (ip), vehicle: saline with Tween-80.
Setting [16] is: dose: 200.0 mg/kg/injection, schedule: Q04DX003 (ip), vehicle: saline with Tween-80.
The mark [17] stands for this setting: dose: 400.0 mg/kg/injection, schedule: Q04DX003 (ip), vehicle: saline with Tween-80.
The mark [18] stands for this setting: dose: 100.0 mg/kg/injection, schedule: Q01DX009 (ip), vehicle: saline with Tween-80.
[19] abbreviates: dose: 200.0 mg/kg/injection, schedule: Q01DX009 (ip), vehicle: saline with Tween-80.
Setting [20] is: dose: 200.0 mg/kg/injection, schedule: Q01DX001 (ip), vehicle: saline.
Where [21] appears, read: dose: 400.0 mg/kg/injection, schedule: Q01DX001 (ip), vehicle: saline.

In the case of `O=C1OCCN1/N=C/c1ccc([N+](=O)[O-])o1`, the T/C under setting [1] was 107 % of control; the T/C under setting [2] is 105 % of control; the T/C under setting [3] was 110 % of control; the T/C under setting [4] is 105 % of control; the T/C under setting [5] is 97 % of control; the T/C under setting [6] was 106 % of control.

Consider `CSCS(C)=O` (stereo not drawn), for which the T/C is, setting by setting: under setting [7], 104 % of control; under setting [8], 103 % of control; under setting [9], 103 % of control.

Consider `O=C(O)c1cc(Cl)c(Br)c(Cl)c1`, for which the T/C is, setting by setting: (dose: 100.0 mg/kg/injection, schedule: Q04DX002 (ip), vehicle: Klucel (hydroxypropylcellulose) (HPC)) 100 % of control; (dose: 200.0 mg/kg/injection, schedule: Q04DX002 (ip), vehicle: Klucel (hydroxypropylcellulose) (HPC)) 107 % of control.

On to `CC(=O)c1cc(C(C)=O)c2cc(C)cc(O)c2c1O`, for which, under setting [10], the T/C is 103 % of control.

Turning to `CC1=NOC(=O)C12CC2`, the T/C is 100 % of control (dose: 75.0 mg/kg/injection, schedule: Q01DX001 (ip), vehicle: saline); 100 % of control (dose: 150.0 mg/kg/injection, schedule: Q01DX001 (ip), vehicle: saline); 103 % of control (dose: 300.0 mg/kg/injection, schedule: Q01DX001 (ip), vehicle: saline).

With `Nc1cc(Cl)c(Cl)cc1S(=O)(=O)O`, the T/C reads like this: under setting [1], 101 % of control; under setting [2], 102 % of control; under setting [3], 98 % of control; under setting [4], 98 % of control; under setting [5], 92 % of control; under setting [6], 96 % of control.

`CC1(C)C2CCC([CH2][Hg][Cl])C1C2` (stereo not drawn): the T/C reads like this: (dose: 6.25 mg/kg/injection, schedule: Q01DX009 (ip), vehicle: saline) 93 % of control; (dose: 6.25 mg/kg/injection, schedule: Q04DX003 (ip), vehicle: other) 103 % of control; (dose: 12.5 mg/kg/injection, schedule: Q01DX009 (ip), vehicle: saline) 91 % of control; (dose: 12.5 mg/kg/injection, schedule: Q04DX003 (ip), vehicle: other) 103 % of control; (dose: 20.0 mg/kg/injection, schedule: Q01DX001 (ip), vehicle: Klucel (hydroxypropylcellulose) (HPC)) 102 % of control; (dose: 25.0 mg/kg/injection, schedule: Q01DX009 (ip), vehicle: saline) 94 % of control. For the same compound, the T/C (dose: 25.0 mg/kg/injection, schedule: Q04DX003 (ip), vehicle: other) was 106 % of control.

For the compound `CC(C)Cn1cnc2c(Sc3c([N+](=O)[O-])ncn3C)nc(N)nc21`, the T/C was 104 % of control (dose: 6.0 mg/kg/injection, schedule: Q01DX015 (ip), vehicle: carboxymethylcellulose (CMC)); 111 % of control (dose: 12.0 mg/kg/injection, schedule: Q01DX015 (ip), vehicle: carboxymethylcellulose (CMC)); 117 % of control (dose: 25.0 mg/kg/injection, schedule: Q01DX015 (ip), vehicle: carboxymethylcellulose (CMC)); 114 % of control under setting [11]; 117 % of control under setting [12]; 119 % of control under setting [13]. Moreover, the T/C runs as follows: under setting [14], 162 % of control; (dose: 600.0 mg/kg/injection, schedule: Q01DX001 (ip), vehicle: carboxymethylcellulose (CMC)) 170 % of control.

Consider `O=C(Nc1cc([N+](=O)[O-])ccc1Cl)Nc1ccccc1C(F)(F)F`, for which the T/C is 104 % of control under setting [1], 94 % of control under setting [3] and 93 % of control under setting [5].

As for `Brc1ccc(N2N=NC3CN(c4ccccc4)CC32)cc1` (stereo not drawn), the T/C runs as follows: under setting [15], 88 % of control; under setting [16], 91 % of control; under setting [17], 93 % of control.

As to `Cc1c(NS(=O)(=O)c2ccccc2)c(C)c(NS(=O)(=O)c2ccccc2)c(C)c1NS(=O)(=O)c1ccccc1`, the T/C runs as follows: (dose: 50.0 mg/kg/injection, schedule: Q01DX009 (ip), vehicle: saline with Tween-80) 96 % of control; under setting [18], 96 % of control; under setting [19], 88 % of control.

Take `O=c1[nH]c(NCCCCc2ccccc2)c(Br)c(=O)[nH]1`: the T/C (dose: 25.0 mg/kg/injection, schedule: Q01DX001 (ip), vehicle: saline with Tween-80) was 98 % of control; the T/C (dose: 50.0 mg/kg/injection, schedule: Q01DX001 (ip), vehicle: saline with Tween-80) was 97 % of control; the T/C (dose: 100.0 mg/kg/injection, schedule: Q01DX001 (ip), vehicle: saline with Tween-80) is 98 % of control.

In the case of `O=C1CC(CC(=O)C2CCCC2=O)CC(=O)N1` (stereo not drawn), the T/C by setting is: under setting [10], 101 % of control; under setting [20], 100 % of control; under setting [21], 108 % of control.

`CS(=O)(=O)OCCN(CCOS(C)(=O)=O)c1ccc([N+](=O)[O-])c(Cl)c1`: the T/C is 96 % of control (dose: 50.0 mg/kg/injection, schedule: Q01DX001 (ip), vehicle: saline); 96 % of control under setting [10]; 100 % of control under setting [20]; 91 % of control under setting [21].

For `NC(N)=NS(=O)(=O)c1ccc(C(N)=NC2CCCCC2)cc1`, the T/C reads like this: under setting [10], 96 % of control; under setting [20], 96 % of control; under setting [21], 90 % of control.

Consider `O=C(NC(Cc1ccccc1)C(=O)N1CCOCC1)c1ccccc1` (stereo not drawn), for which the T/C is, setting by setting: under setting [10], 91 % of control; under setting [20], 98 % of control; under setting [21], 89 % of control.

`CC(C)(NC(=O)OCc1ccccc1)C(=O)O`: the T/C under setting [15] was 98 % of control, the T/C under setting [16] was 95 % of control and the T/C under setting [17] was 101 % of control.

On to `CCOC(=O)C(Cc1ccc2ccccc2n1)C(=O)OCC`, for which the T/C runs as follows: (dose: 100.0 mg/kg/injection, schedule: Q01DX001 (ip), vehicle: Klucel (hydroxypropylcellulose) (HPC)) 100 % of control; (dose: 200.0 mg/kg/injection, schedule: Q01DX001 (ip), vehicle: Klucel (hydroxypropylcellulose) (HPC)) 106 % of control; (dose: 400.0 mg/kg/injection, schedule: Q01DX001 (ip), vehicle: Klucel (hydroxypropylcellulose) (HPC)) 100 % of control.

Take `COc1ccc(CCO)c(OC)c1`: the T/C under setting [11] was 98 % of control, the T/C under setting [12] is 100 % of control, the T/C under setting [13] is 96 % of control and the T/C under setting [14] is 88 % of control.

Consider `CCN(/N=C/c1ccc([N+](=O)[O-])o1)C(N)=O`, for which the T/C by setting is: (dose: 25.0 mg/kg/injection, schedule: Q04DX002 (ip), vehicle: saline with Tween-80) 100 % of control; (dose: 50.0 mg/kg/injection, schedule: Q04DX002 (ip), vehicle: saline with Tween-80) 103 % of control.

Take `CC(=O)N1C(=O)NC(=O)C1(CSCc1ccccc1)CSCc1ccccc1`: the T/C by setting is: (dose: 50.0 mg/kg/injection, schedule: Q01DX005 (ip), vehicle: saline) 104 % of control; (dose: 100.0 mg/kg/injection, schedule: Q01DX005 (ip), vehicle: saline) 98 % of control; (dose: 200.0 mg/kg/injection, schedule: Q01DX005 (ip), vehicle: saline) 110 % of control; (dose: 400.0 mg/kg/injection, schedule: Q01DX005 (ip), vehicle: saline) 94 % of control.

With `CCOC(=O)CNC(=O)Nc1cc(OC)ccc1OC`, the T/C under setting [18] was 96 % of control; the T/C under setting [19] is 95 % of control; the T/C (dose: 400.0 mg/kg/injection, schedule: Q01DX009 (ip), vehicle: saline with Tween-80) is 100 % of control.

Take `CCCCCC(=O)/C=C/c1ccc(C)cc1`: the T/C runs as follows: under setting [7], 102 % of control; under setting [8], 100 % of control; under setting [9], 112 % of control.

With `N#CCCNc1cccc(Cl)c1`, the T/C is, setting by setting: under setting [2], 94 % of control; under setting [4], 109 % of control; under setting [6], 96 % of control.

Consider `Cc1c2ccncc2c(C)c2c1oc1ccccc12`, for which the T/C (dose: 200.0 mg/kg/injection, schedule: Q01DX009 (ip), vehicle: other) was 91 % of control and the T/C (dose: 400.0 mg/kg/injection, schedule: Q01DX009 (ip), vehicle: other) was 95 % of control.
